Series [1] deals with bovine brain tubulin. As to the kind of experiment: Tubulin polymerization assay. The class given is biochemical. The note with it: for IC50: inhibition of tubulin polymerization, tubulin at 10 μM, read-out: Tubulin assembly IC50 ± SD; for fold less active than CA-4 in tubulin assembly: versus CA-4. As for the experimental part: The assembly of purified bovine tubulin was monitored using a kit, BK006, purchased from Cytoskeleton Inc., (Denver, Colo., USA). The assay was carried out in accordance with the manufacturer's instructions using the standard assay conditions. […] Light is scattered proportionally to the concentration of polymerized microtubules in the assay. Therefore, tubulin assembly was monitored turbidimetrically at 340 nm in a Spectramax 340 PC spectrophotometer (Molecular Devices, Sunnyvale, Calif., USA). The concentration that inhibits tubulin polymerization by 50% (IC50) was determined using area under the curve (AUC). The AUC of the untreated controls were considered as 100% polymerization. The IC50 value for each compound was computed using GraphPad Prism Software.

For series [2], the system named is HCT-116 colon cancer cells. As to the kind of experiment: MTT cell viability assay, HCT-116. The class given is cell-based, human. The conditions noted are these: Homo sapiens, HCT-116, MTT. Here is the method:
(§1) All the human tumour cell lines MCF-7, HCT-116, HL-60 and HeLa were cultured in Dulbecco's Modified Eagle's Medium (DMEM) with 10% fetal bovine serum, 2 mM L-glutamine and 100 µg/mL penicillin/streptomycin. Cells were maintained at 37° C. in 5% CO2 in a humidified incubator. All cells were sub-cultured 3 times/week by trypsinization using TrypLE Express (1×).
(§2) The quinoline compounds were evaluated for antiproliferative effect using the MTT viability assay of four cancer cell lines (MCF-7, HCT-116, HL-60 and HeLa) and normal breast cells MCF-10A to calculate the relative IC50 values for each compound. Cells were seeded in triplicate in 96-well plates at a density of 10×10^3 cells/ml in a total volume of 200 μl per well. 0.1% of DMSO was used as a vehicle control. After this time, they were treated with 2 μl test compound which had been pre-prepared as stock solutions in ethanol to furnish the concentration range of study, 1 nM to 50 μM, and re-incubated for a further 72 h. The culture medium was then removed, and the cells washed with 100 μL phosphate buffered saline (PBS) and 50 μL MTT added, to reach a final concentration of 1 mg/mL MTT added. Cells were incubated for 2 h in darkness at 37° C. At this point solubilisation was begun through the addition of […] DMSO and the cells maintained at room temperature in darkness for 20 min to ensure thorough colour diffusion before reading the absorbance. Plates were incubated for 72 hours at 37° C.+5% CO2, The MTT (5 mg/mL in PBS) was added and incubated for another 4 h, the optical density was detected with a microplate reader at 570 nm. Results were expressed as percentage viability relative to vehicle control (100%). Dose response curves were plotted and IC50 values (concentration of drug resulting in 50% reduction in cell survival) were obtained using the commercial software package Prism (GraphPad Software, Inc., La Jolla, Calif., USA). All the experiments were repeated in at least three independent experiments.
(Tetrazolium dyes change colour on reduction, which living cells bring about.)

Series [3] relates to MCF-7 breast cancer cells. As to the kind of experiment: MTT cell viability assay, MCF-7. The class given is cell-based, human. The conditions noted are these: Homo sapiens, MCF7, MCF-7, MTT. As for the experimental part: as §1, §2
Series [4] deals with HeLa cervical cancer cells. As to the kind of experiment: MTT cell viability assay, HeLa. Type of series: cell-based, human. The note with it: Homo sapiens. As for the experimental part: as §1, §2
Series [5] deals with HL-60 leukemia cells. Put plainly: MTT cell viability assay, HL-60. Type of series: cell-based, human. The conditions noted are these: Homo sapiens. As for the experimental part:
as §1, §2

The subject of series [6] is MCF-7, HL-60, HCT-116 and HeLa cancer cells. As to the kind of experiment: MTT antiproliferative activity over the panel of four cancer cell lines. Type of series: cell-based, human. The note with it: for antiproliferative activity (in words): four cancer cell lines, MTT. Here is the method:
as §1, §2

Setting [7] is: HL-60, 72 h, HL-60, MTT, 72 h, mean ± spread of three experiments, read-out: IC50 value (μM) HL-60.

“And” between values parts separate entries of the source, which are not always exact repeats. Equal entries are not always repeated. Where two headings read alike, the source gives them in different places.

The term IC50 denotes the concentration that gives 50% inhibition. The melting point is the temperature, or range, at which the solid turns liquid. In turn, `COc1cc(C2=NC(=Cc3cc4ccccc4nc3OC)C(=O)O2)cc(OC)c1OC` [Compound 8a, 4-[(2-Methoxyquinolin-3-yl)methylene]-2-(3,4,5-trimethoxyphenyl)oxazol-5(4H)-one] showed a melting point of 215 to 217 °C. Moreover, in series [1], the IC50 is 13900 nM and 14000 nM; the “fold less active than CA-4 in tubulin assembly” value stood at 4 fold.

`COc1cc(C2=NC(=Cc3cc4cc(C)ccc4nc3OC)C(=O)O2)cc(OC)c1OC` [Compound 8b, 4-[(2-Methoxy-6-methylquinolin-3-yl)methylene]-2-(3,4,5-trimethoxyphenyl)oxazol-5(4H)-one] gave a melting point of 218 to 220 °C.

Compound `COc1cc(C2=NC(=Cc3cc4cccc(C)c4nc3OC)C(=O)O2)cc(OC)c1OC` [Compound 8d, 4-[(2-Methoxy-8-methylquinolin-3-yl)methylene]-2-(3,4,5-trimethoxyphenyl)oxazol-5(4H)-one] displayed a melting point of 236 to 238 °C.

As to `COc1ccc2nc(OC)c(/C=C3\N=C(c4cc(OC)c(OC)c(OC)c4)OC3=O)cc2c1` [Compound 8e], the melting point lay within 242 to 244 °C. Further, the 50% inhibitory concentration (IC50) in series [1] is 2200 nM and 2260 nM. The IC50 in series [2] (read-out: IC50 in HCT-116 (unit inferred)) turned out to be 0.0318 µM. Besides, in series [3] (read-out: IC50 in MCF-7 (unit inferred)), the IC50 was found to be 56.8 nM. The IC50 in series [4] (read-out: IC50 in HeLa (unit inferred)) was found to be 10.1 nM. The IC50 in series [5] (HL-60, HL-60, MTT, read-out: IC50 in HL-60 (unit inferred)) is 0.0685 µM.

`COc1ccc2cc(C=C3N=C(c4cc(OC)c(OC)c(OC)c4)OC3=O)c(OC)nc2c1` [Compound 8f, 4-[(2,7-Dimethoxyquinolin-3-yl)methylene]-2-(3,4,5-trimethoxyphenyl)oxazol-5(4H)-one] yielded a melting point of 221 to 223 °C.

`COc1cc(C2=NC(=Cc3cc4ccc(OC(C)C)cc4nc3OC)C(=O)O2)cc(OC)c1OC` [Compound 8g, 4-[(7-Isopropoxy-2-methoxyquinolin-3-yl)methylene]-2-(3,4,5-trimethoxyphenyl)oxazol-5(4H)-one] had a melting point of 227 to 229 °C. Also, in series [1], the IC50 came to 8230 nM and the “fold less active than CA-4 in tubulin assembly” value is given as 6 fold.

`COc1cc(C2=NC(=Cc3cc4ccc(OCc5ccccc5)cc4nc3OC)C(=O)O2)cc(OC)c1OC` [Compound 8h, 4-[(7-(Benzyloxy)-2-methoxyquinolin-3-yl)methylene]-2-(3,4,5-trimethoxyphenyl)oxazol-5(4H)-one] had a melting point of 247 to 249 °C.

For `COc1cc(C2=NC(=Cc3cc4ccccc4nc3OC)C(=O)N2)cc(OC)c1OC` [Compound 9a, 5-[(2-Methoxyquinolin-3-yl)methylene]-2-(3,4,5-trimethoxyphenyl)-3,5-dihydro-4H-imidazol-4-one], the melting point lay in the range of 230 to 232 °C.

Regarding `COc1cc(C2=NC(=Cc3cc4cc(C)ccc4nc3OC)C(=O)N2)cc(OC)c1OC` [Compound 9b, 5-[(2-Methoxy-6-methylquinolin-3-yl)methylene]-2-(3,4,5-trimethoxyphenyl)-3,5-dihydro-4H-imidazol-4-one], the melting point was 223 to 225 °C. Further, the “antiproliferative activity (in words)” value in series [6] was “potent activity in submicromolar range”.

`COc1cc(C2=NC(=Cc3cc4ccc(C)cc4nc3OC)C(=O)N2)cc(OC)c1OC` [Compound 9c, 5-[(2-Methoxy-7-methylquinolin-3-yl)methylene]-2-(3,4,5-trimethoxyphenyl)-3,5-dihydro-4H-imidazol-4-one] gave a melting point of 236 to 238 °C. In addition, in series [6] (Homo sapiens, panel of HL-60, MCF-7, HCT-116, HeLa, read-out: IC50 values across the four cancer cell lines), the IC50 is 22300 to 73300 nM. In addition, the “antiproliferative activity (in words)” value in series [6] is “potent activity in submicromolar range”. In addition, the IC50 in series [1] was 20200 nM and 20300 nM. In series [1] (versus oxazolone derivative 8c), the “fold less active than 8c in tubulin polymerization” value is reported as 16 fold.

`COc1cc(C2=NC(=Cc3cc4cccc(C)c4nc3OC)C(=O)N2)cc(OC)c1OC` [Compound 9d, 5-[(2-Methoxy-8-methylquinolin-3-yl)methylene]-2-(3,4,5-trimethoxyphenyl)-3,5-dihydro-4H-imidazol-4-one] came in with a melting point of 233 to 235 °C. In addition, the “antiproliferative activity (in words)” value in series [6] was “potent activity in submicromolar range”.

The compound `COc1ccc2nc(OC)c(C=C3N=C(c4cc(OC)c(OC)c(OC)c4)NC3=O)cc2c1` [Compound 9e, 5-[(2,6-Dimethoxyquinolin-3-yl)methylene]-2-(3,4,5-trimethoxyphenyl)-3,5-dihydro-4H-imidazol-4-one] displayed a melting point of 253 to 255 °C. For the same compound, the IC50 in series [1] was 1400 nM and 1480 nM. Besides, the IC50 in series [2] (72 h, read-out: IC50 value (μM) HCT-116) was 0.085 ± 0.003 µM. Besides, in series [3] (read-out: IC50 in MCF-7), the IC50 is 42.9 nM. Further, the IC50 in series [4] (read-out: IC50 in HeLa) worked out at 62.3 nM. For the same compound, the IC50 in series [5] (setting [7]) came to 0.272 ± 0.05 µM.

Regarding `COc1ccc2cc(C=C3N=C(c4cc(OC)c(OC)c(OC)c4)NC3=O)c(OC)nc2c1` [Compound 9f, 5-[(2,7-Dimethoxyquinolin-3-yl)methylene]-2-(3,4,5-trimethoxyphenyl)-3,5-dihydro-4H-imidazol-4-one], the melting point is 241 to 243 °C. For the same compound, the IC50 in series [2] (read-out: IC50 in HCT-116) came out at 0.188 µM. Moreover, the IC50 in series [3] (read-out: IC50 in MCF-7) was found to be 92.7 nM. Moreover, the concentration for half-maximal inhibition (IC50) in series [4] (read-out: IC50 in HeLa) was 101 nM.

Consider `COc1cc(C2=NC(=Cc3cc4ccc(OC(C)C)cc4nc3OC)C(=O)N2)cc(OC)c1OC` [Compound 9g, 5-((7-Isopropoxy-2-methoxyquinolin-3-yl)methylene)-2-(3,4,5-trimethoxyphenyl)-3,5-dihydro-4H-imidazol-4-one], for which the melting point lay within 238 to 240 °C.

With `COc1cc(C2=NC(=Cc3cc4ccc(OCc5ccccc5)cc4nc3OC)C(=O)N2)cc(OC)c1OC` [Compound 9h, 5-[(7-(Benzyloxy)-2-methoxyquinolin-3-yl)methylene]-2-(3,4,5-trimethoxyphenyl)-3,5-dihydro-4H-imidazol-4-one], the melting point was 259 to 261 °C. Further, the IC50 in series [5] (setting [7]) is 4.93 ± 0.26 µM.

The values are drawn from patent US10882852B1, “3-vinylquinolines as cancer cells inhibitors” (King Abdulaziz University, priority 2020, dated 2021).
